Assay results published in PMC9295577, “Parasite Viability as a Measure of In Vivo Drug Activity in Preclinical and Early Clinical Antimalarial Drug Assessment” (Antimicrobial Agents and Chemotherapy, 2022).
Values after ≈ are worked out from the molar mass of the structure shown. Values joined by “and” are separate entries in the source; they are usually repeats but may differ in a detail not shown here. Identical values can stand only once. Like-named read-outs stand apart in the source and are kept apart here.

Columns and labels:
P. falciparum 3D7 [1] = assay: PK/PD model of parasite killing and clearance, parameters for mice; type: in vivo
Description: (§1) To model the drug action in both mice and humans, we used a pharmacodynamic (PD) model in which viable parasites are growing at rate g (per hour) and killed at rate κ (per hour). The dead parasites are then removed at a separate rate, δ (per hour). […] The latter observation is consistent with observations of slower parasite clearance after drug treatment in the NSG mouse model compared with human infection ([27]).
(§2) To model the cyclical growth of P. falciparum parasites, we used a previously published age-structured model of parasite growth, which tracks the distribution of parasite stages developing in time ([40]): (3) vT(a,T)+va(a,T)=0 where, v is the density of parasites at time T postinfection and age a. In this equation, subscripts indicate the partial derivative of v with respect to the subscript variable. […] The constant PMF is the parasite multiplication factor. Since parasites older than approximately 24 h of age are sequestered and no longer in circulation, the total number of circulating viable parasites (V) at any time is given by V(T)= ∫0asv(a,T)da where as is the age that parasites sequester. Importantly, as has been reported previously, the Plasmodium falciparum 3D7 strain used in these studies has an approximately 40-h blood-stage cycle ([41], [42]), so the maximum age of parasites is taken to be A=40 h.
(§3) We extended an existing age-structured model of parasite growth ([43]) to include drug killing of parasites. […] The model has two parasite compartments: one for viable parasites and one for nonviable parasites. The model of drug killing of viable parasites and host removal of nonviable parasites after treatment is defined as follows: vt(a,t)+va(a,t)= −κ(a,C(t))×v(a,t) (4) ut (a,t)=κ(a,C(t))×v(a,t)−δ×u(a,t) for a>0 where v(a,t) and u(a,t) are the density of viable and nonviable parasites of age a at time t posttreatment, respectively. […] The parameter δ is the rate of host removal of nonviable parasites. The total concentrations of circulating V(t) viable and nonviable U(t) parasites at time t are defined as follows: V(t)= ∫0aSv(a,t)da U(t)= ∫0aSu(a,t)da where as is the parasite sequestration age. We assume that the parasites are not sequestering in mice, in which case, as=A (the length of the parasite blood-stage life cycle), and that parasites sequester at as=A/2 in humans ([46]).
(§4) The maximum killing rate m(a) is a function of the parasite age since very-late-stage parasites are not killed by treatment ([47]).
(§5) As in previous studies, the age above which late-stage parasites survive treatment (aschiz) is taken to be the final 4 h of a 48-h life cycle ([48], [49]). The malaria parasite strain used in this study has a 40-h life cycle ([42], [46]), and we take aschiz as the last 4/48th of the life cycle. […]

[2] = system: P. falciparum Pf3D7^0087/N9; assay: Artesunate efficacy in the murine P. falciparum NSG model: parasitemia and parasite viability (ex vivo regrowth assay); parameters: species or system Plasmodium falciparum; conditions: NSG mice, first 24 h, single oral dose 200 vs 50 mg/kg
Description: Compound efficacy was assessed in the murine P. falciparum NSG model, as described by Jimenez-Diaz et al. ([38]). […] These mice had been engrafted with human erythrocytes 14 days earlier (generously provided by the Blood Bank in Zürich, Switzerland). Prior to compound treatment, mice were intravenously infected with 2 × 10^5 P. falciparum Pf3D7^0087/N9-infected erythrocytes (day 0). On day 3 after infection, mice were randomly allocated to treatments that were administered orally. Parasitemia was measured by microscopy. Chimerism was monitored by flow cytometry using anti-murine erythrocyte TER119 monoclonal antibody (Pharmingen, San Diego, CA) and SYTO-16 and then analyzed by flow cytometry in serial blood samples (2 μL) collected every day until the completion of the experiment. Parasite recrudescence was detected by microscopy.
Prior to each treatment and after 8, 24, 48, 72, 96 and 168 h, 40 μL of blood was collected using a heparinized capillary and transferred into 10 mL of 37°C preheated medium. The suspension was centrifuged (5 min at 290 × g) and the supernatant discarded.
For the ex vivo regrowth assay (ERA), 10-μL pellets of the washed mouse blood sample were processed as described above for the IRA.
To estimate parasite viability, we fitted the data from the regrowth assay with a mathematical model of parasite growth as described in reference [19]. […]

P. falciparum 3D7 [3] = assay: PK/PD model of parasite killing and clearance, parameters for humans; type: in vivo; conditions: human data from ref 19
Description: as §1
(§6) The human data used in this study were obtained from a randomized clinical trial (ACTRN12617001394336) ([24]) and the associated exploratory viability study ([19]). Briefly, 5 volunteers were infected by intravenous injection of blood-stage 3D7 P. falciparum parasites.
as §2, §3
The maximum killing rate m(a) is a function of the parasite age since very-late-stage parasites are not killed by treatment ([47]). […]

[4] = mouse, literature, cited from earlier work
[5] = DHA pharmacokinetics in human volunteer infection study after artesunate; type: in vivo, humans
Description: as §6
Briefly, the model is defined as follows: (2) C(t)=D×ka/Vd/F(ka−CL/Vd) ×[exp(−CL/Vd×(t−tlag))− exp(−ka×(t−tlag)) ], where Vd/F (L) is the apparent volume of distribution, tlag (h) is the lag time between administration and absorption, CL/F (L/h) is the apparent drug clearance, ka is the rate of drug absorption, and D is the dose given to each subject. The model was fit with and without a lag for the absorption. The absorption was too fast to be observed in mice, and the one-compartment open model without a lag term fit the murine data best.
A one-compartment model with a first-order absorption and a lag, fit the human data best.
We used a least-square approach when fitting the ex vivo regrowth assay to estimate the concentration of viable parasites. […] When fitting the pharmacodynamic model, we first fit the pretreatment parasite concentration data for each human subject with the parasite growth model (equation 3) and estimated the distribution of parasite stages at the time of treatment and the parasite multiplication factor (PMF) when drug is not present. For the mice, pretreatment parasitemia curves were not detailed enough to allow fitting to estimate parasite life stage distributions and PM: instead, we estimated the PMF for each mouse from the in vivo recrudescence curves after treatment (fitting a tobit regression model using R package censReg) (Fig. 3), and we estimated the life stage distribution using the life stages from flow cytometric analysis (outlined in section C in the supplemental material). […] We fit this model to all data on parasite viability and total circulating parasitemia from mice and humans simultaneously with a variety of parameters constrained to be equivalent between mice and humans, in order to test which parameters, if any, were required to be different between the two hosts in order to best explain the data. We compared these models using the likelihood ratio test (for nested models) and the Akaike information criterion (AIC). A model with fewer parameters was deemed a better fit of the data unless the likelihood ratio test yielded a P value of […] (for nested models) or the difference in AIC of >10 for nonnested models.

[6] = DHA pharmacokinetics in NSG mice after oral artesunate, one-compartment model; type: in vivo; conditions: mouse, whole blood
Description: A volume of 25 μL of whole-blood samples was collected via the tail vein from individual mice at 0.75, 1.5, 3, 8, 26, 50, and 74 h from the 50-mg/kg 4-daily-dose group and at 0.75, 1.5, 3, and 8 h from the 200-mg/kg single-dose group. […] Samples were vortexed for 20 s before being stored at −80°C.
Briefly, the model is defined as follows: (2) C(t)=D×ka/Vd/F(ka−CL/Vd) ×[exp⁡(−CL/Vd×(t−tlag))− exp⁡(−ka×(t−tlag)) ], where Vd/F (L) is the apparent volume of distribution, tlag (h) is the lag time between administration and absorption, CL/F (L/h) is the apparent drug clearance, ka is the rate of drug absorption, and D is the dose given to each subject. The model was fit with and without a lag for the absorption.
We used a least-square approach when fitting the ex vivo regrowth assay to estimate the concentration of viable parasites. […] When fitting the pharmacodynamic model, we first fit the pretreatment parasite concentration data for each human subject with the parasite growth model (equation 3) and estimated the distribution of parasite stages at the time of treatment and the parasite multiplication factor (PMF) when drug is not present. […]

P. falciparum 3D7 [7] = assay: PK/PD model of parasite killing, parameters common to humans and mice; type: in vivo, Plasmodium falciparum
Description: as §1, §2, §3, §4, §5

[8] = parameters: method as in earlier work; conditions: humans, non-compartmental analysis, population mean (CV), ref 4 (supplement; Watts et al. 2020), cited from earlier work
[9] = model with EC50 and γ common to humans and mice
[10] = model with Emax and γ common to humans and mice
[11] = assumes average mouse weight of 25 g
[12] = humans, one compartment model, population estimate (95% CI)

C[C@H]1[C@H](OC(=O)CCC(=O)O)O[C@@H]2O[C@@]3(C)CC[C@H]4[C@H](C)CC[C@@H]1[C@@]24OO3 [artesunate]
δM, dead parasite clearance rate in mice (P. falciparum 3D7 [1]; [9]): 0.097 h⁻¹ | δM, dead parasite clearance rate in mice (P. falciparum 3D7 [1]; [10]): 0.097 h⁻¹ | increase in the decline in total parasitemia on increasing dose from 50 to 200 mg/kg [2]: 2.2 fold | increase in the decline in viability on increasing dose from 50 to 200 mg/kg ([2]; regrowth assay): 23.9 fold | δH, dead parasite clearance rate in humans (P. falciparum 3D7 [3]; [9]): 0.18 h⁻¹ | δH, dead parasite clearance rate in humans (P. falciparum 3D7 [3]; [10]): 0.18 h⁻¹

C[C@H]1[C@@H](O)O[C@@H]2O[C@@]3(C)CC[C@H]4[C@H](C)CC[C@@H]1[C@@]24OO3 [DHA, dihydroartemisinin]
EC50 (P. falciparum 3D7 [1]; Plasmodium falciparum, 3D7, model with Emax and γ common to humans and mice, read-out: EC50M, drug concentration to reach the half-maximum killing rate in mice): 1.32 ng/mL (≈ 4.64 nM) | EmaxM, maximum killing rate in mice (P. falciparum 3D7 [1]; [9]): 0.74 h⁻¹ | CL/F, apparent clearance [4, 11]: 1.53 L/h | Vd/F, apparent volume of distribution [4, 11]: 0.91 L | CL/F, apparent clearance [4]: 1.98 L/h | Vd/F, apparent volume of distribution [4]: 0.85 L | t1/2, half-clearance time [4]: 0.41 ([50]) h | half-life ([5]; human, blood, 2 mg/kg, humans, computed from CL and Vd, read-out: t1/2, half-clearance time (converted)): 27 min | Vd/F ([5]; human, blood, 2 mg/kg, read-out: Vd/F, apparent volume of distribution): 166 L | CL/F, apparent clearance ([5]; humans (n = 5), artesunate 2 mg/kg, population estimate (95% CI), one-compartment model fitted to data from reference 24): 254.5 L/h and 254.5 (144.5, 364.5) L/h | Dose-Normalised AUC ([5]; humans, one compartment model, average of volunteers, bootstrap confidence interval): 5.34 (3.83, 6.52) μg h L^-1 mg^-1 | ka, absorption rate [5, 12]: 2.29 h⁻¹ | tlag, lag-time [5, 12]: 0.62 (0.4, 0.83) h | EC50 (P. falciparum 3D7 [3]; Plasmodium falciparum, 3D7, model with Emax and γ common to humans and mice, read-out: EC50H, drug concentration to reach the half-maximum killing rate in humans): 0.0025 ng/mL (≈ 0.00879 nM) | EmaxH, maximum killing rate in humans (P. falciparum 3D7 [3]; [9]): 1.45 h⁻¹ | half-life ([6]; mice, computed from CL and Vd, read-out: t1/2, half-clearance time (converted)): 24 min | Vd/F ([6]; read-out: Vd/F, apparent volume of distribution): 0.55 L | EC50 (P. falciparum 3D7 [7]; Plasmodium falciparum, 3D7, model with EC50 and γ common to humans and mice, different Emax, read-out: EC50, drug concentration to reach the half-maximum killing rate): 0.0074 ng/mL (≈ 0.026 nM) | γ, Hill coefficient (P. falciparum 3D7 [7]; [9]): 0.70 | γ, Hill coefficient (P. falciparum 3D7 [7]; [10]): 0.41 | Emax, maximum killing rate (P. falciparum 3D7 [7]; model with Emax and γ common to humans and mice, different EC50s): 1.34 h⁻¹ | V/F, apparent volume of distribution ([8]; ART-R infection (n = 13)): 221.1 (53.6) L | Dose-Normalised AUC ([8]; ART-R infection): 6.3 (89.9) μg h L^-1 mg^-1 | V/F, apparent volume of distribution ([8]; ART-S infection (n = 9)): 310.3 (119.4) L | Dose-Normalised AUC ([8]; ART-S infection): 7.5 (33.2) μg h L^-1 mg^-1
